Laboratory results taken from patent publication US6696494B2, “α-hydroxyarylbutanamine inhibitors of aspartyl protease” (Enanta Pharmaceuticals, Inc., priority 2001, dated 2004).

These compounds were tested against HIV-1 protease (Human immunodeficiency virus type 1 group M subtype B, UniProt P04585) (assay: Inhibition of microbial expressed viral protease (HIV-1 protease), method of Toth and Marshall).
Type: biochemical
Experimental: Biological Assay for Inhibition of Microbial Expressed Viral Protease
The inhibition constants against HIV-1 protease were measured using the method described by M. V. Toth and G. R. Marshall, Int. J. Peptide protein Res., 1990, 544. The method described M. W. Pennington et al., Peptides 1990, Gimet, E. and D. Andrew, Eds., Escom; Leiden, Netherlands (1990) may also be used. The potency is measured as IC50in μM. The person of skill would accept these tests as predictive of the compounds' utility in vivo to treat HIV infected patients.
With `Cc1cc([N+](=O)[O-])cc(C)c1OCC(=O)N[C@@H](Cc1ccccc1)[C@H](O)CCc1ccccc1C(=O)NC(C)(C)C` [Example 001211] the IC50 was 0.1 to 10 µM.
`CCC(C)(C)c1ccc(S(=O)(=O)N[C@@H](Cc2ccccc2)[C@H](O)CCc2ccccc2C(=O)NC(C)(C)C)cc1` [Example 000875] showed an IC50 of 0.1 to 10 µM.
In the case of `Cc1cc(Br)cc(C)c1OCC(=O)N[C@@H](Cc1ccccc1)[C@H](O)CCc1ccccc1C(=O)NC(C)(C)C` [Example 001218], the IC50 is reported as under 0.1 µM.
With `CC(C)(C)NC(=O)c1ccccc1CC[C@@H](O)[C@H](Cc1ccccc1)NC(=O)CCC(=O)c1ccc(F)cc1` [Example 000973] the IC50 was under 0.1 µM.
`CC(C)(C)NC(=O)c1ccccc1CC[C@@H](O)[C@H](Cc1ccccc1)NC(=O)c1ccccc1C(=O)c1ccccc1` [Example 00968] was tested, and the IC50 was 0.1 to 10 µM.
`Cc1ccc(CO)cc1C(=O)N[C@@H](Cc1ccccc1)[C@H](O)CCc1ccccc1C(=O)NC(C)(C)C` [Example 000895] showed an IC50 of under 0.1 µM.
`CCOC(=O)NC(Cc1ccccc1)C(O)C=Cc1ccccc1C(=O)NC(C)(C)C` (stereo not shown) [Example 000207] showed an IC50 of 0.1 to 10 µM.
`CC(C)(C)NC(=O)c1ccccc1CC[C@@H](O)[C@H](Cc1ccccc1)NC(=O)c1cc(N)ccc1Cl` [Example 000971] was tested, and the IC50 was 0.1 to 10 µM.
In the case of `CC(C)(C)NC(=O)c1ccccc1CC[C@@H](O)[C@H](Cc1ccccc1)NC(=O)c1cccc([N+](=O)[O-])c1Br` [Example 000946], the IC50 is reported as over 10 µM.
`CCc1ccc(NC(=O)N[C@@H](Cc2ccccc2)[C@H](O)CCc2ccccc2C(=O)NC(C)(C)C)cc1` [Example 000893] showed an IC50 of 0.1 to 10 µM.
In the case of `CC1CCCC(C)C1OCC(=O)NC(Cc1ccccc1)C(O)CCc1ccccc1C(=O)NC(C)(C)C` (stereo not shown) [Example 001230], the IC50 is reported as 0.1 to 10 µM.
`CC(C)(C)NC(=O)c1ccccc1CC[C@@H](O)[C@H](Cc1ccccc1)NC(=O)N1CCOCC1` [Example 001008] gave an IC50 of 0.1 to 10 µM.
For `CC(C)(C)NC(=O)c1ccccc1CC[C@@H](O)[C@H](Cc1ccccc1)NC(=O)NC(=O)CCl` [Example 000869], the IC50 was over 10 µM.
`CC(C)(C)NC(=O)c1ccccc1CCC(O)C(Cc1ccccc1)NC(=O)C(F)=Cc1ccccc1` (stereo not shown) [Example 000947] was tested, and the IC50 was over 10 µM.
`CC(C)(C)NC(=O)c1ccccc1CC[C@@H](O)[C@H](Cc1ccccc1)NC(=O)CSc1ccccc1` [Example 001190] was tested, and the IC50 was 0.1 to 10 µM.
For `CC(C)(C)NC(=O)c1ccccc1CC[C@@H](O)[C@H](Cc1ccccc1)NC(=O)COc1ccc(F)c(F)c1F` [Example 001227], the IC50 was 0.1 to 10 µM.
In the case of `CCCCNC(=O)N[C@@H](Cc1ccccc1)[C@H](O)CCc1ccccc1C(=O)NC(C)(C)C` [Example 000891], the IC50 is reported as 0.1 to 10 µM.
`Cc1cccc(C)c1C(=O)N[C@@H](Cc1ccccc1)[C@H](O)CCc1ccccc1C(=O)NC(C)(C)C` [Example 000951] showed an IC50 of under 0.1 µM.
With `CC(C)(C)NC(=O)c1ccccc1CC[C@@H](O)[C@H](Cc1ccccc1)NC(=O)COc1c(Br)cc(F)cc1Br` [Example 001226] the IC50 was 0.1 to 10 µM.
`CC(C)(C)NC(=O)c1ccccc1CC[C@@H](O)[C@H](Cc1ccccc1)NC(=O)c1ccccc1` [Example 000245] gave an IC50 of 0.1 to 10 µM.
`Cc1cccc(C)c1OCC(=O)N[C@@H](Cc1ccccc1)[C@H](O)CCc1cccc(F)c1C(=O)NC(C)(C)C` [Example 001239] was tested, and the IC50 was under 0.1 µM.
Work on `CC(C)(C)NC(=O)c1ccccc1CC[C@@H](O)[C@H](Cc1ccccc1)NS(=O)(=O)c1cccc2nonc12` [Example 001012] yielded an IC50 of 0.1 to 10 µM.
`CC(C)(C)NC(=O)c1ccccc1CC[C@@H](O)[C@H](Cc1ccccc1)NS(=O)(=O)c1cccc(Cl)c1Cl` [Example 001010] showed an IC50 of over 10 µM.
In the case of `CC(C)(C)OC(=O)N[C@@H](Cc1ccccc1)[C@H](O)CCc1ccccc1C(=O)N[C@H](CO)c1ccccc1` [Example 001054], the IC50 is reported as 0.1 to 10 µM.
For `CCCCNC(=O)c1ccccc1CC[C@@H](O)[C@H](Cc1ccccc1)NC(=O)OC(C)(C)C` [Example 000344], the IC50 was 0.1 to 10 µM.
`CC(C)(C)NC(=O)c1ccccc1CC[C@@H](O)[C@H](Cc1ccccc1)NS(=O)(=O)c1cccc2cccnc12` [Example 00878] showed an IC50 of 0.1 to 10 µM.
Work on `CC(C)(C)NC(=O)c1ccccc1CC[C@@H](O)[C@H](Cc1ccccc1)NC(=O)CCc1ccccc1` [Example 000763] yielded an IC50 of 0.1 to 10 µM.
`CC(C)(C)NC(=O)c1ccccc1CC[C@@H](O)[C@H](Cc1ccccc1)NC(=O)c1cc(F)cc(F)c1` [Example 000948] showed an IC50 of over 10 µM.
Work on `CC(C)CC(O)C(=O)NC(Cc1ccccc1)C(O)CCc1ccccc1C(=O)NC(C)(C)C` (stereo not shown) [Example 001219] yielded an IC50 of 0.1 to 10 µM.
`CC(C)(C)NC(=O)c1ccccc1CC[C@@H](O)[C@H](Cc1ccccc1)NS(=O)(=O)c1cccs1` [Example 000880] gave an IC50 of 0.1 to 10 µM.
Compound `CC(C)(C)NC(=O)c1ccccc1CC[C@@H](O)[C@H](Cc1ccccc1)NC(=O)c1ccc(C(=O)c2ccccc2)cc1` [Example 001047] has an IC50 of 0.1 to 10 µM.
Work on `CC(C)CCNC(=O)c1ccccc1CC[C@@H](O)[C@H](Cc1ccccc1)NC(=O)OC(C)(C)C` [Example 000766] yielded an IC50 of 0.1 to 10 µM.
In the case of `CC(C)(C)NC(=O)c1ccccc1CC[C@@H](O)[C@H](Cc1ccccc1)NC(=O)NC1CCCCC1` [Example 000882], the IC50 is reported as over 10 µM.
With `COc1cccc(C)c1OCC(=O)N[C@@H](Cc1ccccc1)[C@H](O)CCc1ccccc1C(=O)NC(C)(C)C` [Example 001213] the IC50 was under 0.1 µM.
`CC(C)(C)NC(=O)c1ccccc1CC[C@@H](O)[C@H](Cc1ccccc1)NC(=O)c1cc(C(F)(F)F)ccc1Cl` [Example 001036] showed an IC50 of over 10 µM.
`Cc1ccc(C(=O)C=CC(=O)NC(Cc2ccccc2)C(O)CCc2ccccc2C(=O)NC(C)(C)C)cc1` (stereo not shown) [Example 000950] was tested, and the IC50 was over 10 µM.
`CC(C)(C)NC(=O)c1ccccc1CC[C@@H](O)[C@H](Cc1ccccc1)NC(=O)COc1c(Cl)cccc1Cl` [Example 001203] gave an IC50 of 0.1 to 10 µM.
Work on `Cc1ccc(OCC(=O)N[C@@H](Cc2ccccc2)[C@H](O)CCc2ccccc2C(=O)NC(C)(C)C)cc1` [Example 001186] yielded an IC50 of 0.1 to 10 µM.
Work on `CC(C)(C)NC(=O)c1ccccc1CC[C@@H](O)[C@H](Cc1ccccc1)NC(=O)COc1c(Cl)cc(Cl)cc1Cl` [Example 001224] yielded an IC50 of under 0.1 µM.
Compound `Cc1ccc(CC[C@@H](O)[C@H](Cc2ccccc2)NC(=O)COc2c(C)cccc2C)c(C(=O)NC(C)(C)C)c1` [Example 001237] has an IC50 of under 0.1 µM.
In the case of `COc1ccc(Br)c(C(=O)N[C@@H](Cc2ccccc2)[C@H](O)CCc2ccccc2C(=O)NC(C)(C)C)c1` [Example 000900], the IC50 is reported as 0.1 to 10 µM.
`CC(C)(C)NC(=O)c1ccccc1CC[C@@H](O)[C@H](Cc1ccccc1)NC(=O)c1ccccc1C(=O)c1ccccc1N` [Example 001040] gave an IC50 of 0.1 to 10 µM.
In the case of `Cc1ccc(C)c(OCC(=O)N[C@@H](Cc2ccccc2)[C@H](O)CCc2ccccc2C(=O)NC(C)(C)C)c1C` [Example 001201], the IC50 is reported as under 0.1 µM.
Work on `CCNC(=O)N[C@@H](Cc1ccccc1)[C@H](O)CCc1ccccc1C(=O)NC(C)(C)C` [Example 000771] yielded an IC50 of 0.1 to 10 µM.
For `CC(C)(C)NC(=O)c1ccccc1CC[C@@H](O)[C@H](Cc1ccccc1)NC(=O)c1ccc(N)cc1Cl` [Example 000944], the IC50 was over 10 µM.
`CC(C)(C)NC(=O)c1ccccc1CC[C@@H](O)[C@H](Cc1ccccc1)NS(=O)(=O)c1ccc(C#N)cc1` [Example 000876] showed an IC50 of 0.1 to 10 µM.
Compound `Cc1nocc1C(=O)N[C@@H](Cc1ccccc1)[C@H](O)CCc1ccccc1C(=O)NC(C)(C)C` [Example 001154] has an IC50 of 0.1 to 10 µM.
`CC(C)(C)NC(=O)c1ccccc1CC[C@@H](O)[C@H](Cc1ccccc1)NC(=O)c1ccccc1Nc1ccccc1` [Example 001020] was tested, and the IC50 was over 10 µM.
`COc1ccc(C(=O)c2ccccc2C(=O)N[C@@H](Cc2ccccc2)[C@H](O)CCc2ccccc2C(=O)NC(C)(C)C)c(O)c1` [Example 001034] was tested, and the IC50 was 0.1 to 10 µM.
`CC1CCCCC1OCC(=O)NC(Cc1ccccc1)C(O)CCc1ccccc1C(=O)NC(C)(C)C` (stereo not shown) [Example 001229] showed an IC50 of 0.1 to 10 µM.
For `Cc1cc(C(=O)N[C@@H](Cc2ccccc2)[C@H](O)CCc2ccccc2C(=O)NC(C)(C)C)cc(C)c1OCC(=O)O` [Example 001278], the IC50 was 0.1 to 10 µM.
`CC(C)(C)NC(=O)c1ccccc1CC[C@@H](O)[C@H](Cc1ccccc1)NC(=O)COc1ccccc1` [Example 000244] showed an IC50 of 0.1 to 10 µM.
Work on `CC(C)(C)NC(=O)c1ccccc1CC[C@@H](O)[C@H](Cc1ccccc1)NC(=O)c1cc(Cl)cc(Cl)c1` [Example 000967] yielded an IC50 of 0.1 to 10 µM.
Compound `CC(C)S(=O)(=O)N[C@@H](Cc1ccccc1)[C@H](O)CCc1ccccc1C(=O)NC(C)(C)C` [Example 000881] has an IC50 of 0.1 to 10 µM.
`Cc1cc(Br)cc(Cl)c1OCC(=O)N[C@@H](Cc1ccccc1)[C@H](O)CCc1ccccc1C(=O)NC(C)(C)C` [Example 001216] gave an IC50 of 0.1 to 10 µM.
`Cc1cccc(C)c1OCC(=O)N[C@@H](Cc1ccccc1)[C@H](O)CCc1cccc(C)c1C(=O)NC(C)(C)C` [Example 001249] showed an IC50 of under 0.1 µM.
In the case of `Cc1cccc(OCC(=O)N[C@@H](Cc2ccccc2)[C@H](O)CCc2ccccc2C(=O)NC(C)(C)C)c1` [Example 001185], the IC50 is reported as 0.1 to 10 µM.
Work on `Cc1cc(C(=O)O)ccc1OCC(=O)N[C@@H](Cc1ccccc1)[C@H](O)CCc1ccccc1C(=O)NC(C)(C)C` [Example 001279] yielded an IC50 of 0.1 to 10 µM.
`Cc1c(O)cccc1C(=O)N[C@@H](Cc1ccccc1)[C@H](O)CCc1ccccc1C(=O)NC(C)(C)C` [Example 000972] was tested, and the IC50 was under 0.1 µM.
In the case of `C=CCc1cccc(C)c1OCC(=O)N[C@@H](Cc1ccccc1)[C@H](O)CCc1ccccc1C(=O)NC(C)(C)C` [Example 001206], the IC50 is reported as 0.1 to 10 µM.
For `CC(C)(C)NC(=O)c1ccccc1CC[C@@H](O)[C@H](Cc1ccccc1)NC(=O)c1ccc(Br)c(C(=O)O)c1` [Example 001035], the IC50 was 0.1 to 10 µM.
In the case of `CC(C)(C)NC(=O)c1ccccc1CC[C@@H](O)[C@H](Cc1ccccc1)NS(=O)(=O)c1ccc(Br)c(Cl)n1` [Example 000879], the IC50 is reported as 0.1 to 10 µM.
`CC(C)(C)NC(=O)c1ccccc1CC[C@@H](O)[C@H](Cc1ccccc1)NC(=O)c1ccc(F)cc1F` [Example 000901] showed an IC50 of 0.1 to 10 µM.
Work on `Cc1cc(CO)cc(C)c1OCC(=O)N[C@@H](Cc1ccccc1)[C@H](O)CCc1ccccc1C(=O)NC(C)(C)C` [Example 001267] yielded an IC50 of under 0.1 µM.
